Experimental data as given in a melting point compilation (Tetko et al.; mined from patent text by program, amines drawn as free bases though some values may be those of a salt).

Structure (SMILES) | melting point
COc1c[nH]c(=O)c([N+](=O)[O-])c1 | 179 °C
CCN1CCC2(c3cccc(OC)c3)Cc3[nH]c(C(=O)Nc4ccccc4)c(C)c3CC2C1 (stereo unspecified) | 178 to 180 °C
N#Cc1ccc(-c2csc(NCCO)n2)cc1 | 80 to 82 °C
Cc1cccc(C#N)c1[N+](=O)[O-] | 74.5 to 77 °C
O=C(NCCCc1ccncc1)N(CCC12CC3CC(CC(C3)C1)C2)CC(F)(F)F | 106 to 107 °C
COC(=O)c1nc(Cl)c(F)c(N)c1Cl | 128 to 131 °C
FC(F)(F)c1cc(Br)c2nc(C(F)(F)F)[nH]c2c1 | 127 to 130 °C
CC(=O)Nc1nc2c(ncn2COCC(COC(C)=O)OC(C)=O)c(=O)[nH]1 (stereo unspecified) | 162 to 165 °C
C=CCc1c(O)c(Br)cc2c1[C@H](CCNC(=O)CC)CC2 | 85 to 87 °C
COC(=O)c1ccc(F)c(Br)c1 | 29 to 30 °C
Clc1ccc(Cc2cccnn2)c(Cl)c1 | 67 to 69 °C
Cc1ccc(C2COc3c(C)c(C)cc(C)c32)nc1 (stereo unspecified) | 69 to 70 °C
N#CNC(=O)[C@H](Cc1ccccc1)NC(=O)[C@@H]1CCC(=O)N1 | 163 to 165 °C
CC(CC(C(O)CC(C)(C)O)N(C)C)C1CCC2C(O)CCCC12C (stereo unspecified) | 169 to 170 °C
COC(=O)C=NOCC(=O)C=CN(C)C | 63 to 64 °C
CS(=O)(=O)N1C[C@H](S)C[C@H]1COC(=O)Nc1ccccc1 | 148 °C
O=C(O)c1ccc(S(=O)(=O)n2cccc2)s1 | 191 to 194 °C
Cc1cc(-c2nnc(C(C)(C)C)o2)ccc1[N+](=O)[O-] | 123 to 125 °C
CC1CC(=Cc2ccccc2O)C(=O)O1 (stereo unspecified) | 112 to 114 °C
O=c1ccsn1Cc1ccc2c(c1)CCO2 | 100 to 102 °C
CCCCCCCCCCCCCCCCCCC1CNc2ccc(C(=O)O)cc21 (racemic) | 84 to 87 °C
CCOC(OCC)c1ncn(CCC(O)(c2ccc(F)cc2F)n2cncn2)n1 (stereo unspecified) | 85 to 87 °C
COc1cc2c(c(-c3cc(F)ccc3F)c1)OC(CN)C2 (stereo unspecified) | 118 to 120 °C

Structure (SMILES) | melting point
CCOP(=S)(NCc1cccc(-c2nc(=O)c3ccccc3s2)n1)OCC | 132 to 133 °C
NNC(=O)c1ncn2c1[C@@H]1CCCN1C(=O)c1sccc1-2 | > 260 °C
CCOC(=O)c1ncn2c1CN(Cc1ccc(OC)cc1OC)C(=O)c1ccccc1-2 | 136 to 138 °C
N#CSCCNc1ccc(C(F)(F)F)cc1[N+](=O)[O-] | 115 to 117 °C
CSC(N)=Nc1nncs1 | 116 to 117 °C
CCCCCCCCCCCCCCCCCCNC(=O)OCC(CN)OC(=O)NC (stereo unspecified) | 49 to 50.5 °C
CCCCCCCCCCCCCCCCC(OC)C(=O)OC (stereo unspecified) | 33 to 36 °C
Cc1noc(NS(=O)(=O)c2ccc([N+](=O)[O-])cc2)c1Br | 146 to 149 °C
CCCOC(=N)c1sc2ccccc2c1O | 185 °C
O=P(O)(O)Cc1cccc(C(F)(F)F)c1 | 163 to 164 °C
CCC(=O)Nc1nnc(S)s1 | 234 to 237 °C
CC1CC2=CC(=O)C=CC2(C)C2C(=O)CC3(C)C(=O)CCC3C12 (stereo unspecified) | 257 to 259 °C
Cc1nc2ncnn2c(Cl)c1CCCl | 81 to 82 °C
CCCCCCCCCC(=O)OC1CCC2C3CCC4=CC(=O)CCC4C3CCC12CC (stereo unspecified) | 97 to 97.5 °C
N#Cc1cncc(C=O)c1 | 96 to 98 °C
Nc1c([N+](=O)[O-])sc2cc(Cl)ccc12 | 243 to 245 °C
CN(C)c1cc2c(=O)n(NS(C)(=O)=O)c(=O)[nH]c2cc1C(F)(F)F | 254 to 272 °C
CC(C)(C)C(O)C(=Cn1ccnc1)Oc1ccc(F)cc1 (stereo unspecified) | 112 to 113 °C
COc1ccc(C2(C#Cc3cc(C(=O)O)cs3)CCC(=O)CC2)cc1OC1CCCC1 | 75 to 76 °C
Cc1cc2c(cc1F)N(C(N)=O)C(=O)C2 | 200 to 203 °C
NC(=S)C1CCCc2cccnc21 (stereo unspecified) | 160 °C
Cc1scc(-c2ccccc2)c1N=C1NCCN1 | 140 to 141 °C

Other lines, results leading:

melting point | Structure (SMILES)
48 to 50 °C | CC(C)(C)C(=O)OCOP(=O)(CCCCc1ccccc1)CC(=O)O (stereo unspecified)
95 °C | O=C(O)c1ccc(F)c(Nc2ncccc2-c2ccncn2)c1
77 to 77.5 °C | ICCCCCCc1ccc(-c2ccccc2)cc1
173 to 175 °C | NC(=S)CCn1nc(-c2ccccc2)ccc1=O
283 to 285 °C | CNC1=CC(=O)C(Nc2ncnc3cc(OC)c(OC)cc23)=CC1=O
173 to 175 °C | Cc1ccc(-c2ncc(NC(=O)OCc3ccccc3)c(=O)n2CC(=O)NC(Cc2ccccc2)C(=O)C(F)(F)F)cc1 (stereo unspecified)
98 °C | O=C(N[C@@H](CNC(=O)c1ccc(C2CC2C(=O)NC2=NCCCN2)s1)C(=O)O)OCc1ccccc1 (stereo partly specified)
149 to 150 °C | CC(C)(C#N)c1cc(Cn2ccnc2)cc(C(N)=O)c1
162 to 164 °C | CC1NC2(c3ccccc3)c3ccccc3C(=O)N2C1C (stereo unspecified)
72 to 73.5 °C | CCc1nc2cnc3ccccc3c2n1CC(C)C
123 to 126 °C | CC(C)(C)C1CCC(C2=C(O)C(=O)c3ccccc3C2=O)CC1 (stereo unspecified)
174 to 177 °C | O=C(Nc1ccc2ccccc2c1C(=O)O)OCc1cc2cc(-c3ccccc3)ccc2o1
113 to 116 °C | CCCCCCCCCN(C)c1ccc(S(=O)(=O)Nc2ccccc2)cc1
150 °C | O=C(NOC(=O)c1ccccc1)OCC1c2ccccc2-c2ccccc21
141 °C | CON(Cc1ccc(F)cc1)C(=O)c1nc2n(c(=O)c1OCc1ccccc1)CCOC2(C)C
168 to 169 °C | COC(=O)c1ccc(C=Cc2nc3ccccc3s2)cc1
186 to 188 °C | CO[C@@H]1[C@@H](OC)[C@H](C)O[C@@H](OC(=O)Nc2ccc(-c3ncn(-c4ccc(OC(F)(F)F)cc4)n3)cc2)[C@@H]1OC
165 to 166 °C | COc1ccc(C(=O)N[C@H]2CCN(C)C[C@H]2c2ccccc2)cc1 (relative stereo)
155 to 157 °C | Cc1ccccc1-c1cc(N2CCN(C)CC2)ncc1N(C)C(=O)C(C)(C)c1cc(C(F)(F)F)cc(C(F)(F)F)c1

melting point | Structure (SMILES)
64 to 65 °C | CCOC(=NC(=O)c1ccccc1C(F)(F)F)c1ccccc1Cl
136 to 140 °C | CCOC(=O)C(OC(C)=O)c1ccc(-c2ccc(-c3ccccc3)cc2)o1 (stereo unspecified)
137 °C | CC(=O)SCC(=O)c1ccc(Cl)c(S(N)(=O)=O)c1
137 °C | COc1c(C(=O)NCCN2CCN(c3cccc(Cl)c3Cl)CC2)cc(Br)c2ccccc12
203 to 208 °C | Cc1nccn1-c1cc(NC(=O)OC(C)(C)C)cc(C(F)(F)F)c1
102 to 103 °C | CC(C)(C)OC(=O)N[C@@H]1C(=O)N(C(=O)C(=O)OC(C)(C)C)[C@@H]1CCC(=O)CO[Si](C)(C)C(C)(C)C
106 to 107 °C | Cc1c(-c2ccc(OCc3ccccc3)cc2)n(Cc2ccc(OCCN3[C@H](C)CCC[C@@H]3C)cc2)c2ccc(OCc3ccccc3)cc12
181 to 182 °C | Cc1ccc(C(=O)NCCN(C)C)cc1-n1c(C)cc(OCc2ccccc2CNC(=O)Nc2cc(C(C)(C)C)nn2-c2ccc(O)c(Cl)c2)c(Cl)c1=O
131 to 135 °C | Cn1c(-c2ccc(-c3ccco3)cc2)cnc1[C@H](Cc1ccccn1)N(C=O)OC(C)(C)C
104 to 108 °C | COc1cccc2c1cc(C)n2Cc1ccc(F)cc1
90 to 93 °C | COCCOC(=O)c1ccc(O)cc1
236 °C | COc1ccc(C(=O)O)cc1C(=O)NCc1ccc(C(F)(F)F)cc1
236 to 238 °C | CC(=O)Nc1nc(-c2ccc(F)cc2)c(-c2ccc(=O)n(C(C)C)n2)s1
166 to 167 °C | O=C1c2ccccc2CN1c1ccc(OCCN2CCN(c3nsc4ccccc34)CC2)cc1
187 to 188 °C | COc1cc(-c2ccc(O)c(C3(C)CCCCC3)c2)cc(CC2SC(N(C)C)=NC2=O)c1OC (stereo unspecified)
193 to 195 °C | Cc1ccc2nc3cc(C)c(=O)c(Cl)c-3sc2c1
221 °C | O=C(O)CN1C(=O)C(=Cc2ccc(OCCc3ccc(F)cc3)c(OCc3ccccc3)c2)SC1=S
206 to 208 °C | CCOC(=O)c1c(/C=C/c2nccn2C)nc2cc(OC)c(OC)cc2c1-c1ccc(OC)c(OC)c1
> 360 °C | CN(C)CCn1c(=O)c2c3oc4ccccc4oc3c3[nH]c4ccc(O)cc4c3c2c1=O

melting point | Structure (SMILES)
195 to 197 °C | Cc1cc(C)nc(NC(=O)NS(=O)(=O)c2ccccc2C(Cl)Cl)n1
127 to 129 °C | COc1ccc(C2(C(=O)Oc3ccc(C(=O)NO)cc3)CCCCC2)cc1
250 °C | O=c1ccc(S(=O)(=O)c2[nH]c3ccccc3c2Cl)n[nH]1
174 to 176 °C | COC(=O)c1nc2cccc(Cl)c2c(O)c1C(=O)OC
151 °C | O=C(c1ccc(C(F)(F)F)cc1S(=O)c1ccc(Cl)cc1)c1cnoc1C1CC1 (stereo unspecified)
172 to 173 °C | COC1(C(=O)O)C=CC(OCc2ccccc2)=CC1 (stereo unspecified)
248 to 250 °C | Cc1nc2ccc(NC(=O)COCc3ccccc3)cc2c(=O)n1C1CCC(=O)NC1=O (stereo unspecified)
135 to 136 °C | COc1cc(CO)ccc1OCc1cn(-c2ccccn2)nc1C
64 to 66 °C | CC(C)COC(=O)[C@H](CC(=O)OCc1ccccc1)NC(=O)CCCCNC(=O)OC(C)(C)C
225 to 226 °C | CS(=O)(=O)c1ccc(-c2cnn(Cc3ccc(O)cc3)c(=O)c2-c2ccc(F)cc2)cc1
49 to 53 °C | COC(=O)C1=C(C)NC(C)=C(C(=O)OCC(O)CO)C1c1cccc([N+](=O)[O-])c1 (stereo unspecified)
181 to 183 °C | CC(C)(C)c1cc(CCc2ccccc2NC(=O)NCc2ccccc2)cc(C(C)(C)C)c1O
136 to 138 °C | Cc1cc(C)c(Nc2nc(C)ccc2S(=O)(=O)c2ccc(OCc3c(C)cccc3C)cc2)c(C)c1
133 to 135 °C | COc1cc(C=Nc2cc(Cl)c(N=CN(C)C)c(Cl)c2)cc(OC)c1
164 °C | CCOC(=O)c1cc(-c2cn(Cc3ccccc3C#N)c(=O)n2-c2ccc(F)cc2)ccn1
61 to 62 °C | CCOCOc1ccc(-c2ccc(C(F)(F)F)cc2)cc1Sc1cc(-c2ccc(C(F)(F)F)cc2)ccc1OCOCC
114 to 116 °C | O=C(O)C(Oc1ccccc1)c1ccc(Oc2ccc(Cl)cc2)cc1 (stereo unspecified)
132 to 134 °C | CC(C)N(C[C@H](O)[C@H](Cc1ccccc1)NC(=O)OCc1ccccc1)NC(=O)C(C)(C)C
